In ChEMBL document CHEMBL1157533 (J Med Chem, 2008):

What was measured:
[1] = AUC (0 to 24 hrs) in dog at 0.1 mg/kg, po by cassette assay; assay type: ADME, organism-based, Canis lupus familiaris; design: time < 24 hr, dose 0.1 mg/kg, route oral; details: plasma
[2] = Total clearance in dog at 0.1 mg/kg, iv by cassette assay; assay type: ADME, organism-based, Canis lupus familiaris; design: dose 0.1 mg/kg, route intravenous; details: in vivo
[3] = molecular target: Beta-3 adrenergic receptor (Homo sapiens, UniProt P13945); experiment: Agonist activity at human recombinant beta3 adrenergic receptor expressed in CHO cells assessed as cAMP accumulation by enzyme immuno assay; assay type: functional, cell-based
Beta-3 adrenergic receptor, sequence (P13945 whole entry): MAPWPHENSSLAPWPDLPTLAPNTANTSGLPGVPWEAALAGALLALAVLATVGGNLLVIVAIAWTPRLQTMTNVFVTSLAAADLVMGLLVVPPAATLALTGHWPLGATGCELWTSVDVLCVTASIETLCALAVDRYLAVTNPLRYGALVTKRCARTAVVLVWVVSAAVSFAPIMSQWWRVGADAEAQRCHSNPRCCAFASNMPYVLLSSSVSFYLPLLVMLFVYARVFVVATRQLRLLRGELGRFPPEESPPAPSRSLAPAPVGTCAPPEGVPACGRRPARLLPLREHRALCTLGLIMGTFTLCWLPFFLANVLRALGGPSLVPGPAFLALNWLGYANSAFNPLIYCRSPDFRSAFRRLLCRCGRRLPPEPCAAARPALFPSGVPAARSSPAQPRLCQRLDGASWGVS

[4] = Terminal half life in dog at 0.1 mg/kg, iv by cassette assay; assay type: ADME, organism-based, Canis lupus familiaris; design: dose 0.1 mg/kg, route intravenous; details: in vivo, read-out: beta t1/2 (converted)
[5] = molecular target: Beta-1 adrenergic receptor (Homo sapiens, UniProt P08588); experiment: Agonist activity at human recombinant beta-1 adrenergic receptor expressed in CHO cells assessed as cAMP accumulation by enzyme immuno assay; assay type: functional, cell-based
Beta-1 adrenergic receptor, sequence (P08588 whole entry): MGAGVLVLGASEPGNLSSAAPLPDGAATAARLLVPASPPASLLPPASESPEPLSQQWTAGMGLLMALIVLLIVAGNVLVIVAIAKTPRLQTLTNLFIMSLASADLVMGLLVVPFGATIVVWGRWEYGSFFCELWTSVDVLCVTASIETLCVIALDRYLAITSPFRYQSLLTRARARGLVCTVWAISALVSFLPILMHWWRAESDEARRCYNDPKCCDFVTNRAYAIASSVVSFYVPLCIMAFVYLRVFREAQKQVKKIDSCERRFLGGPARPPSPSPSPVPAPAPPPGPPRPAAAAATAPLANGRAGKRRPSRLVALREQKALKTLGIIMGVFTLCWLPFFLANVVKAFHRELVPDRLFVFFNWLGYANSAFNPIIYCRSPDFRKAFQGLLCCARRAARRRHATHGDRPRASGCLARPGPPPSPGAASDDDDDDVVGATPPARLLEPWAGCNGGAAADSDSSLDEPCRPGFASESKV

[6] = Bioavailability in dog at 0.1 mg/kg, po by cassette assay; assay type: ADME, organism-based, Canis lupus familiaris; details: in vivo
[7] = Cmax in dog at 0.1 mg/kg, po by cassette assay; assay type: ADME, organism-based, Canis lupus familiaris; design: dose 0.1 mg/kg, route oral; details: in vivo
[8] = Terminal half life in Beagle dog at 0.1 mg/kg, iv by cassette assay; assay type: ADME, organism-based, Canis lupus familiaris; design: dose 0.1 mg/kg, route intravenous; details: in vivo, read-out: beta t1/2 (converted)
[9] = AUC (0 to 24 hrs) in Beagle dog at 0.1 mg/kg, iv by cassette assay; assay type: ADME, organism-based, Canis lupus familiaris; design: time < 24 hr, dose 0.1 mg/kg, route intravenous; details: plasma
[10] = Volume of distribution at steady state in Beagle dog at 0.1 mg/kg, iv by cassette assay; assay type: ADME, organism-based, Canis lupus familiaris; design: dose 0.1 mg/kg, route intravenous; details: in vivo, read-out: Vdss
[11] = Metabolic stability assessed as intrinsic clearance in dog liver microsome in presence of NADPH-generating system; assay type: ADME, Canis lupus familiaris; details: liver microsomes
[12] = Bioavailability in Beagle dog at 0.1 mg/kg, po by cassette assay; assay type: ADME, organism-based, Canis lupus familiaris; details: in vivo
[13] = Total clearance in Beagle dog at 0.1 mg/kg, iv by cassette assay; assay type: ADME, organism-based, Canis lupus familiaris; design: dose 0.1 mg/kg, route intravenous; details: in vivo
[14] = AUC (0 to 2 hrs) in Beagle dog at 0.1 mg/kg, po by cassette assay; assay type: ADME, organism-based, Canis lupus familiaris; design: time < 2 hr, dose 0.1 mg/kg, route oral; details: plasma
[15] = molecular target: Beta-2 adrenergic receptor (Homo sapiens, UniProt P07550); experiment: Agonist activity at human recombinant beta2 adrenergic receptor expressed in CHO cells assessed as cAMP accumulation by enzyme immuno assay; assay type: functional, cell-based
Beta-2 adrenergic receptor, sequence (P07550 whole entry): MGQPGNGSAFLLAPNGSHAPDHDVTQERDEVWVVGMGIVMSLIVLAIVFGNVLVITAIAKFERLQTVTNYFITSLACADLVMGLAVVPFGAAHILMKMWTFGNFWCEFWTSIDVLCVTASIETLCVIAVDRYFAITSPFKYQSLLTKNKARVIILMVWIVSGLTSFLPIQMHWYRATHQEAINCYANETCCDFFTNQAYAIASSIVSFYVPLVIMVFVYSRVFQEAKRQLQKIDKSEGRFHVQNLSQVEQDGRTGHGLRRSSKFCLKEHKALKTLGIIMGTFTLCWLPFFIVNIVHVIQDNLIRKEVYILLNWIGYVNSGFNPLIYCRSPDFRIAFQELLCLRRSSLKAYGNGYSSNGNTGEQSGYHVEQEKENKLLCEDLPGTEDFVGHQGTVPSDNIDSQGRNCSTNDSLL

[16] = Protein binding in Beagle dog serum; assay type: ADME, cell-free, Canis lupus familiaris; details: read-out: PPB (converted)
[17] = Bioavailability in dog; assay type: ADME, organism-based, Canis lupus familiaris; details: in vivo

EC50 [3] [nM]	EC50 [5] [nM]	Structure (SMILES)	further results
0.5	84	CC(C)Oc1cc(-c2ccc(OCCNC[C@H](O)c3cccc(Cl)c3)cc2)ccc1C(=O)O	
0.16	91	O=C(O)c1ccc(-c2ccc(OCCNC[C@H](O)c3ccccc3)cc2)cc1OC1CCCCC1	
0.55	400	CC(C)COc1cc(-c2ccc(OCCNC[C@H](O)c3ccccc3)cc2)ccc1C(=O)O	
1.2	210	CCCOc1cc(-c2ccc(OCCNC[C@H](O)c3ccccc3)cc2)ccc1C(=O)O	
2.4	500	CC(C)Oc1cc(-c2ccc(CCNC[C@H](O)c3ccc(Cl)cc3)cc2)ccc1C(=O)O	

More lines, now with the values behind:

Structure (SMILES)	EC50 [3] [nM]	EC50 [5] [nM]	further results
CC(C)Cc1cc(-c2ccc(OCCNC[C@H](O)c3ccc(N)nc3)cc2)ccc1C(=O)O	0.059	12	AUC(0-t) at 24 h [1]: 38.2 ng·h/mL; clearance [2]: 14.2 mL/min/kg; half-life [4]: 570 min; bioavailability [6]: 34.8%; Cmax [7]: 11.6 ng/mL
C[C@H](Cc1ccc(-c2ccc(C(=O)O)c(OC3CCCCC3)c2)cc1)NC[C@H](O)c1ccccc1	0.042	28	half-life [8]: 21 min; AUC(0-t) at 24 h [9]: 24.3 ng·h/mL; Vd [10]: 1.13 L/kg; CLint scaled [11]: < 0.1 mL/min/kg; bioavailability [12]: 0%; clearance [13]: 68.9 mL/min/kg
CC(C)Oc1cc(-c2ccc(CC(C)(C)NC[C@H](O)c3ccccc3)cc2)ccc1C(=O)O	0.91	280	
CCCOc1cc(-c2ccc(CCCNC[C@H](O)c3cccc(Cl)c3)cc2)ccc1C(=O)O	0.7	180	
O=C(O)c1ccc(-c2ccc(OCCNC[C@H](O)c3cccc(Cl)c3)cc2)cc1OC1CCCCC1	0.27	52	
C[C@H](Cc1ccc(-c2ccc(C(=O)O)cc2)cc1)NC[C@H](O)c1cccc(Cl)c1	0.18	13	
CC(C)COc1cc(-c2ccc(C[C@@H](C)NC[C@H](O)c3ccccc3)cc2)ccc1C(=O)O	0.041	130	half-life [8]: 1060 min; AUC(0-t) at 24 h [9]: 44.5 ng·h/mL; Vd [10]: 30.8 L/kg; AUC(0-t) at 2 h [14]: 0.2 ng·h/mL; bioavailability [12]: 0.4%; clearance [13]: 39 mL/min/kg
CCCOc1cc(-c2ccc(CCN[C@@H](C)[C@H](O)c3ccccc3)cc2)ccc1C(=O)O	0.43	690	EC50 [15]: > 10 µM
CC(C)Oc1cc(-c2ccc(CCNC[C@H](O)c3ccccc3)cc2)ccc1C(=O)O			fraction unbound [16]: 0.14
CC(C)Oc1cc(-c2ccc(C[C@H](CO)NC[C@H](O)c3ccccc3)cc2)ccc1C(=O)O	7.4	> 1000	
O=C(O)c1ccc(-c2ccc(CCNC[C@H](O)c3cccc(Cl)c3)cc2)cc1OC1CCCCC1			bioavailability [17]: 0%
CC(C)Oc1cc(-c2ccc(CCNC[C@H](O)c3cccc(O)c3)cc2)ccc1C(=O)O	0.062	440	
COc1cc(-c2ccc(CCNC[C@H](O)c3cccc(Cl)c3)cc2)ccc1C(=O)O			bioavailability [17]: 58%
C[C@@H](Cc1ccc(-c2ccc(C(=O)O)cc2)cc1)NC[C@H](O)c1cccc(Cl)c1	6	12	
CCOc1cc(-c2ccc(C[C@@H](C)NC[C@H](O)c3ccccc3)cc2)ccc1C(=O)O	0.31	62	half-life [8]: 594 min; AUC(0-t) at 24 h [9]: 477 ng·h/mL; Vd [10]: 1.9 L/kg; AUC(0-t) at 2 h [14]: 350 ng·h/mL; bioavailability [12]: 73%; clearance [13]: 3.5 mL/min/kg
CC(C)Oc1cc(-c2ccc(CCNC[C@H](O)c3cccc(F)c3)cc2)ccc1C(=O)O	2.1	320	
CC(C)Oc1cc(-c2ccc(CCNC[C@H](O)c3ccc(N)cc3)cc2)ccc1C(=O)O	2.6	> 1000	
